Patent US20230167467A1, “METHODS AND COMPOSITIONS FOR THE PRODUCTION OF ISOBUTENE” (University of Alaska Anchorage, priority 2020, published 2023)

System: Engineered strains of E. coli
Format: cell-based
[1] = after solvent exposure, vs positive control

## CC(C)=O [acetone]
  expression of accBC (fatty acid biosynthesis): downregulated
  expression of bssRS (decreasing biofilm material): upregulated
  expression of chaperone genes groLS and dnaJK: increased expression
  expression of gad genes: increase in expression
  expression of gadABCE (acid resistance via GABA production): upregulated
  expression of glpABC (glycerol to glycerone phosphate): increased in expression
  expression of heat shock proteins and chaperones hslJORUV: upregulation
  expression of ibpAB and clpAB (protein protection and repair): increased
  expression of marA: upregulated
[1]
  change in expression of gene adiA: 1.50 ± 0.91
  change in expression of gene adiC: −0.54 ± 1.10
  change in expression of gene adiY: −0.57 ± 0.71
  change in expression of gene bhsA: 4.49 ± 0.62
  change in expression of gene bssR: 2.34 ± .46
  change in expression of gene bssS: 5.02 ± .88
  change in expression of gene clpA: 1.92 ± .68
  change in expression of gene clpB: 4.51 ± .69
  change in expression of gene clpP: 1.39 ± 0.63
  change in expression of gene coaA: −3.10 ± 1.0
  change in expression of gene coaD: 0.05 ± 1.01
  change in expression of gene cspA: −4.58 ± 0.64
  change in expression of gene cspB: −5.17 ± 1.49
  change in expression of gene cspC: −0.95 ± .98
  change in expression of gene cspD: 2.52 ± 0.63
  change in expression of gene cspE: −2.45 ± 0.72
  change in expression of gene cspF: −5.06 ± 1.34
  change in expression of gene dhaK: 0.26 ± 0.67
  change in expression of gene dhaL: −0.41 ± 0.74
  change in expression of gene dnaJ: 2.96 ± 0.74
  change in expression of gene dnaK: 4.58 ± 0.66
  change in expression of gene fabA: −0.85 ± 0.84
  change in expression of gene fabB: 1.61 ± 0.72
  change in expression of gene fabD: −1.74 ± 0.59
  change in expression of gene flgA: −2.14 ± 1.68
  change in expression of gene flgB: −4.07 ± 1.67
  change in expression of gene flgC: −4.24 ± 2.06
  change in expression of gene flgD: −4.39 ± 2
  change in expression of gene flgE: −4.02 ± 1.30
  change in expression of gene flgF: −2.98 ± 1.7
  change in expression of gene flgG: −4.98 ± 1.68
  change in expression of gene flgH: −2.24 ± 1.82
  change in expression of gene gabD: 0.73 ± 1.41
  change in expression of gene gabP: −1.06 ± 1.42
  change in expression of gene gabT: 0.34 ± 1.38
  change in expression of gene gadA: 4.57 ± 0.70
  change in expression of gene gadB: 4.53 ± 0.82
  change in expression of gene gadC: 4.83 ± 0.82
  change in expression of gene gadE: 2.23 ± .62
  change in expression of gene gadW: 1.58 ± 1
  change in expression of gene gadX: 1.71 ± 0.59
  change in expression of gene gadY: 0.05 ± 0.83
  change in expression of gene glpA: 4.83 ± 0.91
  change in expression of gene glpB: 2.81 ± 0.69
  change in expression of gene glpC: 3.12 ± 0.87
  change in expression of gene groL: 4.18 ± 0.58
  change in expression of gene groS: 4.58 ± 0.51
  change in expression of gene hchA: 4.64 ± 0.64
  change in expression of gene hslJ: −0.10 ± 0.75
  change in expression of gene hslO: 2.78 ± 0.69
  change in expression of gene hslR: 3.01 ± 0.70
  change in expression of gene hslU: 2.69 ± 0.59
  change in expression of gene hslV: 2.24 ± 0.67
  change in expression of gene ibpA: 5.64 ± 1.22
  change in expression of gene ibpB: 6.70 ± 1.51
  change in expression of gene lhgO: 1.82 ± 1.73
  change in expression of gene lipA: −1.03 ± 0.69
  change in expression of gene lipB: −1.11 ± 0.75
  change in expression of gene narG: 2.69 ± 0.70
  change in expression of gene narH: 2.94 ± 0.66
  change in expression of gene narI: 1.48 ± 1.02
  change in expression of gene narJ: 1.75 ± 0.74
  change in expression of gene narK: 0.21 ± 0.96
  change in expression of gene potA: −3.62 ± 0.91
  change in expression of gene potB: −2.22 ± 1.43
  change in expression of gene potC: −3.06 ± 1.45
  change in expression of gene pspA: 2.10 ± 0.60
  change in expression of gene pspB: 0.76 ± 0.80
  change in expression of gene rpoA: −0.20 ± 0.47
  change in expression of gene rpoB: −0.26 ± 0.43
  change in expression of gene rpoC: −0.29 ± 0.43
  change in expression of gene rpoD: 1.41 ± 0.72
  change in expression of gene rpoE: −0.26 ± 0.66
  change in expression of gene rpoH: 1.72 ± 0.55
  change in expression of gene rpoN: −1.18 ± 0.54
  change in expression of gene rpoS: 1.63 ± 0.51
  change in expression of gene rpoZ: −1.83 ± 0.60
  change in expression of gene spy: 1.90 ± 0.95
  change in expression of gene tatA: −1.15 ± 0.57
  change in expression of gene tatB: −1.35 ± 0.65
  change in expression of gene tatC: −2.55 ± 1.23
  change in expression of gene tatD: −1.90 ± 1.23
  change in expression of gene tatE: 0.41 ± 0.70
Vs control, Bon Ferroni corrected p-value<0.05
  number of genes with significant changes in expression: 399 genes
